One experiment has as its target T1, human HIPK2 (Homo sapiens, UniProt Q9H2X6).
T1 construct: Recombinant human HIPK2 (1-640); GST (N); purchased SignalChem H04-11BG; host or cells: Sf9 insect cells
Description: HIPK2 enzyme assay (ADP-Glo). It counts as biochemical. As to conditions: ADP-Glo, ATP 5 μM; read-out: HIPK2 IC50. The gist of the method: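 GST-tagged HIPK2 (1-640) from Sf9, 1 nM, preincubated 30 min at 25° C with inhibitor in 40 mM Tris pH 7.5, 20 mM MgCl2. Reaction ran 90 min at 25° C with GST-MBP substrate at 0.05 mg/ml and 5 μM ATP. ADP-Glo luminescence; IC50 by four-parameter logistic fit.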

The target in another experiment is T2, human DYRK1A (Homo sapiens, UniProt Q13627).
T2 construct: Recombinant full-length DYRK1A (expressed in E. Coli cells with an N-terminal GST tag); GST (N); purchased SignalChem D09-10G; host or cells: E. coli
The experiment in a line: DYRK1A enzyme assay (ADP-Glo). In kind it is biochemical. As to conditions: ADP-Glo, ATP 60 μM; read-out: DYRK1A IC50. The gist of the method:
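ADP formed is quantified by luciferase luminescence (ADP-Glo) after a 60-minute, 25 °C reaction with 60 μM ATP and 20 μM DYRKtide peptide. Enzyme: 3 nM recombinant N-terminal GST DYRK1A, given 30 min compound preincubation in Tris pH 7.5/MgCl2/BSA/DTT buffer; % inhibition versus plate controls, four-parameter IC50.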

A value given as a limit tells only on which side of the number the result lay.

T1 sequence (Q9H2X6 1-640): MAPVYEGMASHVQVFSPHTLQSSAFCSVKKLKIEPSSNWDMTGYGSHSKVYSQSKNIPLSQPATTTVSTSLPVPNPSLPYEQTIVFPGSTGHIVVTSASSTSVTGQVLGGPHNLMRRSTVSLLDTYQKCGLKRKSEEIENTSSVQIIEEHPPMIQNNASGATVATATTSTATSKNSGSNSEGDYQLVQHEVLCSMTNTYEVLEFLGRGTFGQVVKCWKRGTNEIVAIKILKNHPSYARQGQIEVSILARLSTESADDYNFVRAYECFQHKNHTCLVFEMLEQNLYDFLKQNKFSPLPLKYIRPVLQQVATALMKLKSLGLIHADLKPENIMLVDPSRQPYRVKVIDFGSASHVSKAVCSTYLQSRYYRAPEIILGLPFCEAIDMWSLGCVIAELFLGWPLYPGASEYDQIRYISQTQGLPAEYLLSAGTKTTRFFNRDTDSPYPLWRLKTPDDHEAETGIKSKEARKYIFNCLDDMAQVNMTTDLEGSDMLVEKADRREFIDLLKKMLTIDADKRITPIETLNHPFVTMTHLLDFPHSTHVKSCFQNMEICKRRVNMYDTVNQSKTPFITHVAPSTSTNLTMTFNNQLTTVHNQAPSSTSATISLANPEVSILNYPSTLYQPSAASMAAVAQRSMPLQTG

In the case of `O=C1NC(N(CC2CC2)c2ccccc2)=N/C1=C\c1ccc2c(c1)OCO2` [Example 10, (Z)-5-(benzo[d][1,3]dioxol-5-ylmethylene)-2-((cyclopropylmethyl)(phenyl)amino)-3,5-dihydro-4H-imidazol-4-one], the IC50 is over 10000 nM on human HIPK2 and 100 to 1000 nM at human DYRK1A.
On the same counts, the results for `O=C1/C(=C/c2ccc3c(c2)OCO3)N=C(N(Cc2ccccc2)c2ccccc2)N1Cc1ccccc1` [Example 2, (Z)-5-(benzo[d][1,3]dioxol-5-ylmethylene)-3-benzyl-2-(benzyl(phenyl)amino)-3,5-dihydro-4H-imidazol-4-one] are over 10000 nM and 1000 to 10000 nM.
As for `O=C1NC(Nc2ccc3c(c2)OCCO3)=N/C1=C\c1ccc2ncsc2c1` [Example 81, (Z)-5-(benzo[d]thiazol-6-ylmethylene)-2-((2,3-dihydrobenzo[b][1,4]dioxin-6-yl)amino)-3,5-dihydro-4H-imidazol-4-one], the IC50 at human HIPK2 and at human DYRK1A was under 100 nM each time.
As for `CN(C1=N/C(=C\c2ccc3c(c2)OC(F)(F)O3)C(=O)N1)c1ccccc1` [Example 17, (Z)-5-((2,2-difluorobenzo[d][1,3]dioxol-5-yl)methylene)-2-(methyl(phenyl)amino)-3,5-dihydro-4H-imidazol-4-one], the IC50 on human HIPK2 and at human DYRK1A was over 10000 nM in each case.
On to `COc1ccccc1N(C)C1=N/C(=C\c2ccc3c(c2)OCO3)C(=O)N1` [Example 21, (Z)-5-(benzo[d][1,3]dioxol-5-ylmethylene)-2-((2-methoxyphenyl)(methyl)amino)-3,5-dihydro-4H-imidazol-4-one], for which the IC50 on human HIPK2 is over 10000 nM; on human DYRK1A, 100 to 1000 nM.
Take `Cn1ncc2ccc(/C=C3\N=C(Nc4ccccc4)NC3=O)cc21` [Example 79, 5-((1-methyl-1H-indazol-6-yl)methylene)-2-(phenylamino)-3,5-dihydro-4H-imidazol-4-one]: the IC50 on human HIPK2 and on human DYRK1A was over 10000 nM in each case.
As for `CN(C1=N/C(=C\c2ccc3c(c2)OCO3)C(=O)N1)c1ccc(N)cc1` [Example 37, (Z)-2-((4-aminophenyl)(methyl)amino)-5-(benzo[d][1,3]dioxol-5-ylmethylene)-3,5-dihydro-4H-imidazol-4-one], the IC50 on human HIPK2 was over 10000 nM; at human DYRK1A, 1000 to 10000 nM.
In the case of `O=C1NC(Nc2ccccc2)=N/C1=C\c1ccc2occc2c1` [Example 52, (Z)-5-(benzofuran-5-ylmethylene)-2-(phenylamino)-3,5-dihydro-4H-imidazol-4-one], the IC50 at human HIPK2 and on human DYRK1A was over 10000 nM in each case.
With `Cn1ncc2cc(/C=C3\N=C(Nc4ccc5ncsc5c4)NC3=O)ccc21` [Example 78, (Z)-2-(benzo[d]thiazol-6-ylamino)-5-((1-methyl-1H-indazol-5-yl)methylene)-3,5-dihydro-4H-imidazol-4-one], the half-maximal inhibitory concentration (IC50) on human HIPK2 and at human DYRK1A was over 10000 nM throughout.
As to `O=C1NC(N(Cc2ccccc2)c2ccccc2)=N/C1=C\c1ccc2[nH]cnc2c1` [Example 35, (Z)-5-((1H-benzo[d]imidazol-5-yl)methylene)-2-(benzyl(phenyl)amino)-3,5-dihydro-4H-imidazol-4-one], the IC50 on human HIPK2 was over 10000 nM; on human DYRK1A, 1000 to 10000 nM.
For `CN(Cc1ccccc1)C1=N/C(=C\c2ccc3c(c2)OCO3)C(=O)N1` [Example 23, (Z)-5-(benzo[d][1,3]dioxol-5-ylmethylene)-2-(benzyl(methyl)amino)-3,5-dihydro-4H-imidazol-4-one], the IC50 is over 10000 nM at human HIPK2 and 100 to 1000 nM on human DYRK1A.
Take `O=C1NC(Nc2ccccc2)=N/C1=C\c1ccc2[nH]ncc2c1` [Example 55, (Z)-5-((1H-indazol-5-yl)methylene)-2-(phenylamino)-3,5-dihydro-4H-imidazol-4-one]: the IC50 was 100 to 1000 nM at human HIPK2 and under 100 nM on human DYRK1A.
On the same counts, the results for `O=C1NC(Nc2ccccc2)=N/C1=C\c1ccc2[nH]cnc2c1` [Example 26, (Z)-5-((1H-benzo[d]imidazol-5-yl)methylene)-2-(phenylamino)-3,5-dihydro-4H-imidazol-4-one] are 100 to 1000 nM and under 100 nM.
In the same order, the values of `Cn1cnc2ccc(/C=C3\N=C(Nc4ccccc4)NC3=O)cc21` [Example 46, (Z)-5-((1-methyl-1H-benzo[d]imidazol-6-yl)methylene)-2-(phenylamino)-3,5-dihydro-4H-imidazol-4-one] are 100 to 1000 nM and under 100 nM.
In the same order, the values of `CN(C1=N/C(=C\c2ccc3ncsc3c2)C(=O)N1)c1ccc([N+](=O)[O-])cc1` [Example 43, (Z)-5-(benzo[d]thiazol-6-ylmethylene)-2-(methyl(4-nitrophenyl)amino)-3,5-dihydro-4H-imidazol-4-one] are over 10000 nM and 1000 to 10000 nM.

The values are drawn from patent US12643887B2, “Heterocyclic derivatives with cardiomyocyte proliferation activity for treatment of heart diseases” (Tongji University, priority 2019, dated 2026).
